Measurements from the Kinase Knowledgebase extract (Sharma et al. 2016).

Target: EGFR (UniProt P00533)
Experiment: Inhibition of EGFR Kinase Activity

Chain of EGFR (P00533 whole entry, looked up): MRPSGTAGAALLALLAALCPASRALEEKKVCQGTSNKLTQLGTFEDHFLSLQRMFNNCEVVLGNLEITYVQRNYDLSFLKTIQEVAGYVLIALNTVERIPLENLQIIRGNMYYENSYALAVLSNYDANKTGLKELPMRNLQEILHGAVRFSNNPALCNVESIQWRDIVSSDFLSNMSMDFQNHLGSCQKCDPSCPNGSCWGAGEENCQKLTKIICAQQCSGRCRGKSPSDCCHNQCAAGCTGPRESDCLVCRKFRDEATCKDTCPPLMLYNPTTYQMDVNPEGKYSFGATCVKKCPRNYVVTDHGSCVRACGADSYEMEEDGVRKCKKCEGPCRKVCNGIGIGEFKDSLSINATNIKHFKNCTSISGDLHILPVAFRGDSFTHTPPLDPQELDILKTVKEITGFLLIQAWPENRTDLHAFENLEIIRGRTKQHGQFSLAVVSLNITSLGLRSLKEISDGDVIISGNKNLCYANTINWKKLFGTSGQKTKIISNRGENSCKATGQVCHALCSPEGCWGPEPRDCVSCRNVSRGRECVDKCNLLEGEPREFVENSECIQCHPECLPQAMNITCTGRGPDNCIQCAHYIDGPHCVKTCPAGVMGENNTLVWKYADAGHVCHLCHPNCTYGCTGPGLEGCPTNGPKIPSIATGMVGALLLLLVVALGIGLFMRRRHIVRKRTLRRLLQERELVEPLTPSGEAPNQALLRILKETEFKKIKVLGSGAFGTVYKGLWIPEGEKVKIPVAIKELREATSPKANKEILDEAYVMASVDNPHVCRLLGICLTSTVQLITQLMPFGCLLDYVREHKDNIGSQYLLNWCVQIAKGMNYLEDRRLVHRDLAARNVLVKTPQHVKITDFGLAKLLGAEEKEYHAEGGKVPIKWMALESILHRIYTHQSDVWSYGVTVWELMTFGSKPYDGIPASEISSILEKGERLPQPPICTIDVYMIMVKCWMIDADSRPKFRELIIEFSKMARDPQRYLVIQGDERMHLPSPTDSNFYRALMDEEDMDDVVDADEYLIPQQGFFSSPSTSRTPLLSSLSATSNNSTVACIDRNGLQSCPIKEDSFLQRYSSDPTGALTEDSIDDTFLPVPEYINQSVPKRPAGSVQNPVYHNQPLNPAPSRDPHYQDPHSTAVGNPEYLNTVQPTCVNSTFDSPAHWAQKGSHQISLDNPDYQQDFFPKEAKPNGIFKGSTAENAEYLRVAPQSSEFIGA

| Compound | IC50 [µM] |
| --- | --- |
| C=CC(=O)Nc1ccc(Nc2ncnc(Nc3cc(OC)c(OC)c(OCCN4CCOCC4)c3)n2)cc1 | < 50 |
| C=CC(=O)Nc1cccc(Nc2ncnc(N(C)c3ccc(OCc4ccccc4)c(Cl)c3)n2)c1 | < 50 |
| CC#CC(=O)Nc1cccc(Nc2ncnc(NC3CC3c3ccc(Cl)cc3)n2)c1 (configuration not stated) | < 50 |
| C=CC(=O)Nc1cccc(Nc2ncnc(N(CC)c3ccc(OC)c(OC)c3)n2)c1 | < 50 |
| C=CC(=O)Nc1cc(Nc2ncnc(Nc3ccc4c(ccn4Cc4ccccc4)c3)n2)ccc1OCCCN1CCOCC1 | < 50 |
| CC#CC(=O)Nc1cccc(Nc2ncnc(N(CC)c3ccc4c(cnn4Cc4ccccc4)c3)n2)c1 | < 50 |
| C=CCN(c1ccc(C(=O)OC)cc1)c1ncnc(Nc2cccc(NC(=O)C=C)c2)n1 | < 50 |
| CC#CC(=O)Nc1cc(Nc2ncnc(N(C)c3ccc(OCc4ccccc4)c(Cl)c3)n2)ccc1OCCCN1CCOCC1 | < 50 |
| C=CC(=O)n1ncc2cc(Nc3ncnc(Nc4ccc5c(cnn5Cc5ccccc5)c4)n3)ccc21 | < 50 |
| CC#CC(=O)Nc1cc(Nc2ncnc(Nc3ccc(OCc4ccccc4)c(Cl)c3)n2)ccc1OCCCN1CCOCC1 | < 50 |
| C=CC(=O)Nc1cccc(Nc2ncnc(N(C)C3CC3c3ccc(Cl)cc3)n2)c1 (configuration not stated) | < 50 |
| C=CCN(c1cccc(CC(=O)OC)c1)c1ncnc(Nc2cccc(NC(=O)C=C)c2)n1 | < 50 |
| C=CCN(c1cccc(S(=O)(=O)c2ccc([N+](=O)[O-])cc2)c1)c1ncnc(Nc2cccc(NC(=O)C#CC)c2)n1 | < 50 |
| C=CC(=O)Nc1cccc(Nc2ncnc(N(C)c3ccc(OCCC)c(OCCC)c3)n2)c1 | < 50 |
| C=CC(=O)Nc1ccc(Nc2ncnc(Nc3cccc(Cl)c3)n2)cc1 | < 50 |
| C=CC(=O)Nc1ccc(Nc2ncnc(N(C)c3ccc4c(cnn4Cc4ccccc4)c3)n2)cc1 | < 50 |
| CC#CC(=O)Nc1cccc(Nc2ncnc(N(C)n3c(=O)[nH]c4ccccc43)n2)c1 | < 50 |
| CC#CC(=O)Nc1cccc(Nc2ncnc(N(C)c3ccc(OCCC)c(OCCC)c3)n2)c1 | < 50 |
| C=CC(=O)Nc1cccc(Nc2ncnc(Nc3ccc(C(=O)OC)cc3)n2)c1 | < 50 |
| CC#CC(=O)Nc1cc(Nc2ncnc(Nc3cccc(Cl)c3)n2)ccc1OCCCC1CCN(C)CC1 | < 50 |
| C=CC(=O)n1ncc2ccc(Nc3ncnc(Nc4ccc5c(cnn5Cc5ccccc5)c4)n3)cc21 | < 50 |
| C=CC(=O)Nc1cccc(Nc2ncnc(Nc3ccc(OCCC)c(OCCC)c3)n2)c1 | < 50 |
| CC#CC(=O)Nc1cccc(Nc2ncnc(N(C)c3ccc(F)c(Cl)c3)n2)c1 | < 50 |
| C=CC(=O)Nc1cccc(Nc2ncnc(N(C)n3c(=O)[nH]c4ccccc43)n2)c1 | < 50 |

| Compound | IC50 [µM] |
| --- | --- |
| C=CCN(c1ccc(OC)c(OCCOC)c1)c1ncnc(Nc2cccc(NC(=O)C=C)c2)n1 | < 50 |
| C=CCN(c1ncnc(Nc2cccc(NC(=O)C=C)c2)n1)n1c(=O)n(C(=O)C(C)(C)C)c2ccccc21 | < 50 |
| C=CC(=O)Nc1cccc(Nc2ncnc(N(C)c3cc(Cl)ccc3C)n2)c1 | < 50 |
| C#CCC(=O)Nc1cccc(Nc2ncnc(NN3CCCc4cc(Cl)ccc43)n2)c1 | < 50 |
| C=CC(=O)Nc1cc(Nc2ncnc(Nc3cccc(Cl)c3)n2)ccc1OCCCN1CCOCC1 | < 50 |
| C=CCN(c1ncnc(Nc2cccc(NC(=O)C#CC)c2)n1)n1c(=O)n(C(=O)C(C)(C)C)c2ccccc21 | < 50 |
| C=CC(=O)Nc1cccc(Nc2ncnc(NN3CCCc4c(Cl)cccc43)n2)c1 | < 50 |
| C=CC(=O)Nc1cccc(Nc2ncnc(N(CC)c3cc(OC)c(OC)c(OCCN4CCOCC4)c3)n2)c1 | < 50 |
| C=CC(=O)Nc1cc(Nc2ncnc(Nc3ccc4c(ccn4Cc4ccccc4)c3)n2)ccc1OCCCC1CCN(C)CC1 | < 50 |
| C=CC(=O)Nc1cccc(Nc2ncnc(N(C)c3cccc(S(=O)(=O)c4ccc([N+](=O)[O-])cc4)c3)n2)c1 | < 50 |
| CC#CC(=O)Nc1cc(Nc2ncnc(N(C)c3ccc4c(ccn4Cc4ccccc4)c3)n2)ccc1OCCCN1CCOCC1 | < 50 |
| C=CCN(c1ncnc(Nc2cccc(NC(=O)C#CC)c2)n1)c1cccc2ccccc12 | < 50 |
| CC#CC(=O)Nc1cccc(Nc2ncnc(Nc3cc(Cl)ccc3C)n2)c1 | < 50 |
| C=CC(=O)Nc1cccc(Nc2ncnc(Nc3cccc(Cl)c3)n2)c1 | < 50 |
| C=CCN(c1ncnc(Nc2ccc(NC(=O)C=C)cc2)n1)c1cc(Cl)ccc1C | < 50 |
| C=CC(=O)Nc1ccc(Nc2ncnc(Nc3cccc(CC(=O)OC)c3)n2)cc1 | < 50 |
| C=CC(=O)Nc1cccc(Nc2ncnc(N(C)c3ccc(OCCO)cc3)n2)c1 | < 50 |
| C=CCN(c1ncnc(Nc2cccc(NC(=O)C#CC)c2)n1)C1CC1c1ccccc1 (configuration not stated) | < 50 |
| C=CC(=O)Nc1ccc(Nc2ncnc(Nc3ccc4c(cnn4Cc4ccccc4)c3)n2)cc1OC | < 50 |
| C=CC(=O)Nc1ccc(Nc2ncnc(N(CC)c3cc(Cl)cc4ccccc34)n2)cc1 | < 50 |
| CC#CC(=O)Nc1cccc(Nc2ncnc(Nc3ccc(C(=O)OC)cc3)n2)c1 | < 50 |
| C=CC(=O)Nc1cccc(Nc2ncnc(N(C)c3ccc(OCCOC)c(OC)c3)n2)c1 | < 50 |
| C=CC(=O)Nc1cccc(Nc2ncnc(N(CC)c3cc(Cl)cc4ccccc34)n2)c1 | < 50 |
